For data set [1], the system named is MCF-7 (MUC1^+HLA-A*0201^+) cells. The data set is described as follows: CTL assay, HLA-A*0201/K^b spleen CTLs on human breast cancer cells. It counts as ex vivo, mouse. To be noted: HLA-A2 mice. The protocol: FIG. 14(A) Direct CTL assay using p815 MUC1+ (Tm2) or P815 targets. DBA/2 mice were immunised with MFP, or Gal-KLH. FIG. 14(B) CTL assay using HLA-A*0201/K^b spleen CTLs from mice immunised with either mimic or mutated mimic peptides on ^51Cr MCF-7 (MUC1^+HLA-A*0201^+) cells. ^51CrBT20 (MUC1^+HLA-A*0201^−) or MF272 (MUC1^−IILA-A*0201^+) cells were also used as targets and as well as ^51CrMCF-7 cells incubated with cold K562 cells at a 30:1 hot:cold ratio (K562, a myelogenous leukemia cell line). Vertical axis=% lysis; horizontal axis=E:T ratio.
It was next investigated whether the […] peptide (SEQ ID No. 1) be presented by HLA-A2 could immunise for HLA-H2 presented MUC1 peptides. […] Thus the […] peptide (SEQ ID No. 1) gives highly specific immune responses which appear to be directed to the human MUC1 peptide presented by MUC class I molecules.

The target of data set [2] is T1, IB4 lectin (Griffonia simplicifolia, UniProt Q8W1R6).
T1 sequence (Q8W1R6 1-247): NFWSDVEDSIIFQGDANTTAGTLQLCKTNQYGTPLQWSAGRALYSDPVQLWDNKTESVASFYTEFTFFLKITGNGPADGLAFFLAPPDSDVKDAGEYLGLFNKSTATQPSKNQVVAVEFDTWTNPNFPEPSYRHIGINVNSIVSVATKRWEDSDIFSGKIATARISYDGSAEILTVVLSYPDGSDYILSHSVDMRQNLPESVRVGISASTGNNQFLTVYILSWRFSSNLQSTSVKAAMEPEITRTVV
As to the kind of experiment: biochemical.

Data set [3] deals with T1, IB4 lectin. As to the kind of experiment: Elisa: inhibition of IB4 lectin binding to Galα(1,3)Gal-BSA. As for the experimental part: 50 μl of either purified anti-Galα(1,3)Ga IgG or biotinylated IB4 lectin was added to the wells, incubated for 45 minutes at 22° C., washed with PBS-0.05% Tween 20, and 50 μl of the relevant IIRP conjugate added and incubated for a further 45 minutes before washing and the addition of 50 μl of substrate (2,2′ Azino-di-B-ethylbenzthiozoline (Zymed, San Francisco, Calif.)) and reading the OD405.
An Elisa was established to calculate the relative “affinity” of the Gal pep 1 (SEQ ID No. 1) for the IB4 lectin and for human anti-Galα(1,3)Gal antibodies, and to compare these with the affinities for α-galactosyl sugars.
Peptides or carbohydrates were examined cytofluorographically for their ability to inhibit antibody/lectin binding to the cell surface using a FACSCAN flow cytometer (Becton Dickinson, USA)[20]: 25 μl of inhibitor was mixed with 25 μl of antibody of lectin and incubated at 22° C. for 3 hours (peptides) or at 4° C. for 16 hours (carbohydrates)[14], prior to addition of appropriate targets. An Elisa assay was used to calculate the relative affinities of the sugars or the peptides for both IB4 lectin and antibodies, and were defined as the molar concentration of inhibitor giving 50% inhibition of the maximal binding of lectin or antibody.

Another data set deals with PIEC cells. The data set is described as follows: Inhibition of cytotoxicity of NHS and complement on PIEC. The format is cell-based, pig. To be noted: peptide 10 mM to 2.5 mM, NHS 1/25. The source says:
FIG. 4. Inhibition of cytotoxicity due to natural antibody and complement by Gal pep 1 (SEQ ID No. 1). Varying concentrations of Gal pep 1 (∘) or CD48 pep 1 (♦) (shown in mM on horizontal axis) were examined in a cytotoxicity assay using NHS (final dilution of 1/25) and PEEC cells as targets.
The binding of lectin or antibody to the surface of pig cells was detected by hemagglutination, cytotoxicity or flow cytometry using the FACSCAN flow cytometer (Becton Dickinson, Mountain View, Calif.).
Human cytotoxic antibodies directly damage pig endothelial cells in a pig-to-human xenograft, therefore the ability of Gal pep 1 (SEQ ID No. 1) to inhibit the cytotoxicity of human antibodies on PIEC in vitro was tested; Gal pep 1 inhibited the cytotoxicity of NHS (10 mM to 2.5 mM), whereas CD48 pep 1 (SEQ ID No. 11) had no effect (FIG. 4).

No end group written: not given here.

As to DLHWASWV, the “CTL lysis of human breast cancer cell lines” value in data set [1] is on record as “specifically lyse human breast cancer cell lines”.

What is called IC50 is the concentration that inhibits the measured activity by half. Lower therefore signals greater potency in that assay. Take DAHWESWL [Gal pep 1]: the IC50 at IB4 lectin [2] amounted to 5 mM; on IB4 lectin [3], 0.3 mM. In the data set on PIEC cells, the “Inhibition of cytotoxicity of NHS on PIEC” value is “inhibited”.

The record behind these values is patent US6344203B1, “Mimicking peptides in cancer therapy” (The Austin Research Institute, priority 1995, dated 2002).
